For 15 molecules, IC50 results are on record in patent publication US20170305857A1, “N-ACYLPIPERIDINE ETHER TROPOMYOSIN-RELATED KINASE INHIBITORS” (Pfizer Limited, priority 2014, published 2017).

In general, pIC50 refers to −log10 of the IC50, conventionally taken in molar units.

pIC50: −log10 of the molar value.

T1 sequence (P04629 441-796): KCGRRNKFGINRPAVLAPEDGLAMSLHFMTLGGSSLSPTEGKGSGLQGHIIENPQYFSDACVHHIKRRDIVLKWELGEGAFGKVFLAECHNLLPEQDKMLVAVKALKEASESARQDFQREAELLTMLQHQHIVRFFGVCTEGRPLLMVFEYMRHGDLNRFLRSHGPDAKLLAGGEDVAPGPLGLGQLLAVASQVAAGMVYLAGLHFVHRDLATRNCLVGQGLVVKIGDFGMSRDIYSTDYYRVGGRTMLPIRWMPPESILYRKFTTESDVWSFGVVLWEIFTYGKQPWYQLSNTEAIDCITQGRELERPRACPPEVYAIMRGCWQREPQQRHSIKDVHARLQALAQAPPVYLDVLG

This test has as its target T1, recombinant His-tagged cytoplasmic domains of TRKA receptor (NTRK1, PV3144, aa 441-796) (Homo sapiens, UniProt P04629).
T1 construct: aa 441-796; His; purchased Invitrogen PV3144
Briefly: Isolated TRK enzyme assay (HTRF KinEASE-TK, PV3144 TrkA enzyme assay). Format: biochemical. Conditions: 4 nM enzyme, 40 uM ATP, 35 min, arithmetic mean where more than one reading. The method in brief:
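Enzyme and ATP were preincubated with compound for 20 min at room temperature in buffer with 10 mM MgCl and 2 mM DTT. TK-substrate-Biotin was then added (1 uM final) and the reaction run for an enzyme-specific optimized time. Phosphorylation was read by HTRF, and IC50 values came from sigmoid fits of percent inhibition normalized to plate controls, averaged over replicate readings.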
As for `CC(C)c1ccc(CC(=O)N2CCC(Oc3ccc(-c4cnn(C)c4)cc3C(N)=O)CC2)cc1` [Example 109, 5-(1-methyl-1H-pyrazol-4-yl)-2-[(1-{[4-(propan-2-yl)phenyl]acetyl}piperidin-4-yl)oxy]benzamide], the pIC50 was 8.15.

`Cn1cc(-c2ccc(OC3CCN(C(=O)Cc4ccc(OC(F)(F)F)c(Cl)c4)CC3)c(C(N)=O)c2)cn1` [Example 110, 2-[(1-{[3-chloro-4-(trifluoromethoxy)phenyl]acetyl}piperidin-4-yl)oxy]-5-(1-methyl-1H-pyrazol-4-yl)benzamide]: the pIC50 is 6.96.

Turning to `Cn1cc(-c2ccc(OC3CCN(C(=O)Cc4ccc(OC(F)(F)F)c(F)c4)CC3)c(C(N)=O)c2)cn1` [Example 111, 2-[(1-{[3-fluoro-4-(trifluoromethoxy)phenyl]acetyl}piperidin-4-yl)oxy]-5-(1-methyl-1H-pyrazol-4-yl)benzamide], the pIC50 is 8.35.

For `NC(=O)c1cc(-c2cn(CCO)cn2)ccc1OC1CCN(C(=O)Cc2ccc(OC(F)(F)F)cc2)CC1` [Example 115, 5-[1-(2-hydroxyethyl)-1H-imidazol-4-yl]-2-[(1-{[4-(trifluoromethoxy)phenyl]acetyl}piperidin-4-yl)oxy]benzamide], the pIC50 was 8.36.

For the molecule `NC(=O)c1cc(-c2cn(CCO)cn2)cnc1OC1CCN(C(=O)Cc2ccc(OC(F)(F)F)cc2)CC1` [Example 116, 5-[1-(2-hydroxyethyl)-1H-imidazol-4-yl]-2-[(1-{[4-(trifluoromethoxy)phenyl]acetyl}piperidin-4-yl)oxy]pyridine-3-carboxamide], the pIC50 is 8.09.

For the molecule `NC(=O)c1cc(-c2c[nH]c(C3(F)COC3)n2)ccc1OC1CCN(C(=O)Cc2ccc(OC(F)(F)F)cc2)CC1` [Example 117, 5-[2-(3-fluorooxetan-3-yl)-1H-imidazol-4-yl]-2-[(1-{[4-(trifluoromethoxy)phenyl]acetyl}piperidin-4-yl)oxy]benzamide], the pIC50 was 7.97.

For `Cc1nc(-c2cnc(O[C@H]3CCN(C(=O)Cc4ccc(OC(F)(F)F)cc4)C[C@H]3F)c(C(N)=O)c2)c[nH]1` [Example 118, 2-{[(3R,4S)-3-fluoro-1-{[4-(trifluoromethoxy)phenyl]acetyl}piperidin-4-yl]oxy}-5-(2-methyl-1H-imidazol-4-yl)pyridine-3-carboxamide], the pIC50 is 8.96.

Turning to `NC(=O)c1cc(-c2cnn(C[C@H](O)CO)c2)ccc1OC1CCN(C(=O)Cc2ccc(OC(F)(F)F)cc2)CC1` [Example 119, 5-{1-[(2S)-2,3-dihydroxypropyl]-1H-pyrazol-4-yl}-2-[(1-{[4-(trifluoromethoxy)phenyl]acetyl}piperidin-4-yl)oxy]benzamide], the pIC50 is 8.10.

With `Cc1nc(-c2cnc(O[C@@H]3CCN(C(=O)Cc4ccc(OC(F)(F)F)cc4)C[C@@H]3F)c(C(N)=O)c2)c[nH]1` [Example 120], the pIC50 is 8.89.

Consider `Cc1nc(-c2ccc(O[C@@H]3CCN(C(=O)Cc4ccc(OC(F)(F)F)cc4)C[C@@H]3F)c(C(N)=O)c2)c[nH]1` [Example 121], for which the pIC50 was 8.82.

For `NC(=O)c1cc(-c2cnn(C[C@@H](O)CO)c2)ccc1OC1CCN(C(=O)Cc2ccc(OC(F)(F)F)cc2)CC1` [Example 122], the pIC50 is 8.36.

`Cc1nn(C[C@@H](O)CO)c(C)c1-c1ccc(OC2CCN(C(=O)Cc3ccc(OC(F)(F)F)cc3)CC2)c(C(N)=O)c1` [Example 123]: the pIC50 was 8.42.

As for `Cc1nn(C[C@H](O)CO)c(C)c1-c1ccc(OC2CCN(C(=O)Cc3ccc(OC(F)(F)F)cc3)CC2)c(C(N)=O)c1` [Example 124], the pIC50 is 8.13.

`NC(=O)c1cc(-c2cn(C[C@H](O)CO)cn2)ccc1OC1CCN(C(=O)Cc2ccc(OC(F)(F)F)cc2)CC1` [Example 125]: the negative logarithm of the IC50 (pIC50) was 8.18.

`NC(=O)c1cc(-c2cn(C[C@@H](O)CO)cn2)ccc1OC1CCN(C(=O)Cc2ccc(OC(F)(F)F)cc2)CC1` [Example 126, 5-{1-[(2R)-2,3-dihydroxypropyl]-1H-imidazol-4-yl}-2-[(1-{[4-(trifluoromethoxy)phenyl]acetyl}piperidin-4-yl)oxy]benzamide]: the pIC50 was 8.54.
